Structures can show the parent of a compound that is named as a salt.
Assays:
Assay type in all cases: biochemical
MERTK = biological target: T1, MERTK (Homo sapiens, UniProt Q12866); assay: TR-FRET kinase activity assay, MERTK; settings: for IC50: TR-FRET activity assay, ATP at Km, 60 minutes, read-out: Mer IC50; for FLT3/Mer ratio (FLT3 IC50/Mer IC50): ratio of Mer to FLT3: FLT3 IC50/Mer IC50
T1 sequence (Q12866 21-999): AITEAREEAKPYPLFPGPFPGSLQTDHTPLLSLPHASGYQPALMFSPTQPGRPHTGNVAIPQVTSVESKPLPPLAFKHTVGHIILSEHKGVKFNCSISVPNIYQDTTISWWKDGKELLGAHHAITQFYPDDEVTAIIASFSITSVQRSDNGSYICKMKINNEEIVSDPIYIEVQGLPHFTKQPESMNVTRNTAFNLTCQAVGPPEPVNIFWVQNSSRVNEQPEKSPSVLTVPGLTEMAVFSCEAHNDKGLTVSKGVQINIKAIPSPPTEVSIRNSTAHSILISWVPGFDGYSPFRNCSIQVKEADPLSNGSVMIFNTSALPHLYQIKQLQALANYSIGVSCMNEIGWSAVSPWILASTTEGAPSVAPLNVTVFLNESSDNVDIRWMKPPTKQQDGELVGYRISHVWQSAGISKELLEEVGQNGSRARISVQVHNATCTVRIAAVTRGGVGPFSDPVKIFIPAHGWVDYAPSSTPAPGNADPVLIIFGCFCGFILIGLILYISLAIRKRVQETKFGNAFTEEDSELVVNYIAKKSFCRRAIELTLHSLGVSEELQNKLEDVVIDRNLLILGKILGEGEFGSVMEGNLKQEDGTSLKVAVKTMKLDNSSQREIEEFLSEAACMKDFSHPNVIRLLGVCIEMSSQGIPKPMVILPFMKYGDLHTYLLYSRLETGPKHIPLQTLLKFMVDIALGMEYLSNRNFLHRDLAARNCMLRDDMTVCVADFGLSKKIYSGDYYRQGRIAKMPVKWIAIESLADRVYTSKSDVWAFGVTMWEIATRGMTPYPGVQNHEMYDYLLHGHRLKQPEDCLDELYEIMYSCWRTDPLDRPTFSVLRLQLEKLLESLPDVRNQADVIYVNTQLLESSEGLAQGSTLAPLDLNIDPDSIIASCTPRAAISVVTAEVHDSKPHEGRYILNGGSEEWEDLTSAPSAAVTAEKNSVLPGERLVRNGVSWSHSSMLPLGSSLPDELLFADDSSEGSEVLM
Method: (§1) IC50 values for compound inhibition of AXL, FLT3, MERTK and TYRO3 activity were determined by using a TR-FRET activity assay. A polypeptide substrate with a fluorescent label is phosphorylated on a tyrosine by each enzyme, where the now phosphorylated product is bound by a Europium-labeled antibody specific to that phosphorylation site. The proximity between the antibody and the substrate gives a signal known as TR-FRET. As the enzyme is inhibited by compound, less phosphorylated peptide product is made causing a decrease in overall signal.
(§2) Activity assays were performed in a 384-well, small volume, black microplates in an active enzyme volume of 10 μL and final developed volume of 20 μL. Final assay conditions are 50 mM HEPES pH 7.5, 10 mM MgCl2, 1 mM EGTA, 0.01% Brij 35 and 1 mM DTT all at RT. Enzyme, substrate labeled peptide and compound are mixed, and then the reaction is initiated with the addition of ATP at Km concentration for each enzyme. The reaction is allowed to run 60 minutes and then quenched with a 12.5 mM EDTA (ethylenediamine tetraacetic acid) solution. The plate is then developed with the addition of Europium labeled antibody for a final volume of 20 μL and is then incubated for 30 minutes in darkness. Plates are read in a Pherastar plate reader. Data is analyzed in GraphPad PRISM.
(§3) The results of these assays are shown in Table 1, below, wherein “No.” designates compound number (FIG. 1); “A” represents a value of ≤100 nM; “B” a value of >100 nM and ≤1 μM; “C” a value of >1 μM and ≤10 μM; “D” a value of >10 μM; “ND” is not determined. The ratio of Mer to FLT3 is calculated as follows: FLT3 IC50/Mer IC50. “+” represents a ratio of >2.0 and <10; “++” represents a ratio of between 10 and 100; and “+++” represents a ratio of >100.

AXL = biological target: T2, AXL (Homo sapiens, UniProt P30530); assay: TR-FRET kinase activity assay, AXL; settings: ATP at Km, 60 minutes
T2 sequence (P30530 26-894): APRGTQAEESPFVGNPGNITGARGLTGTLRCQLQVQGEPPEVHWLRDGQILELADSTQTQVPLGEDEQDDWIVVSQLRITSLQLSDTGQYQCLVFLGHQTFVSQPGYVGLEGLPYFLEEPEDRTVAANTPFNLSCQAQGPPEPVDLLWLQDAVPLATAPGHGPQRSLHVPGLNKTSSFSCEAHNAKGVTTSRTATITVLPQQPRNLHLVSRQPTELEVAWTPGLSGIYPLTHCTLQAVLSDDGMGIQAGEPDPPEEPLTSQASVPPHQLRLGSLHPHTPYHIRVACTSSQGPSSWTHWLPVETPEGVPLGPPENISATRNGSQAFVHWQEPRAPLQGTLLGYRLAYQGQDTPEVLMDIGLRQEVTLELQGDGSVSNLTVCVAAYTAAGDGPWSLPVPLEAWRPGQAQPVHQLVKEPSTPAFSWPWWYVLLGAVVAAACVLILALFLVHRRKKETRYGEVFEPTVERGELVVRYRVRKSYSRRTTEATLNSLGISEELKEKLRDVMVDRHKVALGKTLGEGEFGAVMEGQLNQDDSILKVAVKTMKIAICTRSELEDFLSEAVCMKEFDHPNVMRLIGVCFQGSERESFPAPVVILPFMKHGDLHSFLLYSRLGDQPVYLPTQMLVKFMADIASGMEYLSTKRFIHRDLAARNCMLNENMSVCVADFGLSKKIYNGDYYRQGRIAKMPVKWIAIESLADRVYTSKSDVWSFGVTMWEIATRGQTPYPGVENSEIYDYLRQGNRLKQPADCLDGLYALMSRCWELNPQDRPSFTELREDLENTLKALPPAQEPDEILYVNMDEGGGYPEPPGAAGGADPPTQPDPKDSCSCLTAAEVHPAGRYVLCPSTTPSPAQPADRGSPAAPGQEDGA
Method: as §1, §2, §3

FLT3 = biological target: T3, FLT3 (Homo sapiens, UniProt P36888); assay: TR-FRET kinase activity assay, FLT3; settings: ATP at Km, 60 minutes
T3 sequence (P36888 27-993): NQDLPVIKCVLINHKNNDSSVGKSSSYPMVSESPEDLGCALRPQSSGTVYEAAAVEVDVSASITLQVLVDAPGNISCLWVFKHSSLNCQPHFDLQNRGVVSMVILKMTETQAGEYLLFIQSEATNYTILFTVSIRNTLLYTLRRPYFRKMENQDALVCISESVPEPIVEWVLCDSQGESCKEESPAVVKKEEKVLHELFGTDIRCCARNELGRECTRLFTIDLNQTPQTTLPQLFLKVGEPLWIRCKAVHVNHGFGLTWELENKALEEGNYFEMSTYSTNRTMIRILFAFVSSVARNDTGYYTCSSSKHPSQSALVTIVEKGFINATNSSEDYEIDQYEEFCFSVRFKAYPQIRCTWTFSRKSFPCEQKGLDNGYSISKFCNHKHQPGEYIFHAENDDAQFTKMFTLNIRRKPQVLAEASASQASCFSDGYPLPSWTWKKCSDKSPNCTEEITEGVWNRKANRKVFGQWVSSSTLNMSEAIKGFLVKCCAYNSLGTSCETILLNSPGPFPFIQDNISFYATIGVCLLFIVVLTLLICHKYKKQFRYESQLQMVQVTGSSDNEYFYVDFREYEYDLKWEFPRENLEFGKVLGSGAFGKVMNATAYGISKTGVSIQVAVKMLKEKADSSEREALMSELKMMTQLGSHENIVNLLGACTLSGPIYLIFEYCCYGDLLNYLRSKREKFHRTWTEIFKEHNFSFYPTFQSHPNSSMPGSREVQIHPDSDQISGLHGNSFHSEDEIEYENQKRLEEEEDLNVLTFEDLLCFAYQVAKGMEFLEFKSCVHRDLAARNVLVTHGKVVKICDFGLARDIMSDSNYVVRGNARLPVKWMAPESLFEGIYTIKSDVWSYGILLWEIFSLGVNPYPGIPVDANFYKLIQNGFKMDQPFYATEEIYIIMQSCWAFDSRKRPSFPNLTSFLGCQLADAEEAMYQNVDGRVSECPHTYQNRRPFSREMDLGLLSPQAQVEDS
Method: as §1, §2, §3

SMILES | IC50 (MERTK) [nM] | FLT3/Mer ratio (FLT3 IC50/Mer IC50) (MERTK) | IC50 (AXL) [nM] | IC50 (FLT3) [nM]
CCCCNc1ncc2c(-c3ccc(S(=O)(=O)N4CCOCC4)cc3)cc([C@H]3CC[C@H](O)CC3)n2n1 [Compound 101] | ≤ 100 | + (“+” represents a ratio of >2.0 and <10) | ≤ 100 | ≤ 100
CCCCCC(C)Nc1ncc2c(Nc3ccc(F)cc3)cc(C3CCC(O)CC3)n2n1 [Compound 106, (1S,4r)-4-(5-((4-fluorophenyl)amino)-2-((S)-heptan-2-ylamino)pyrrolo[2,1-f][1,2,4]triazin-7-yl)cyclohexanol hydrochloride] | 100 to 1000 | ++ (“++” represents a ratio of between 10 and 100) | > 10000 | > 10000
COC[C@H](C)Nc1ncc2c(-c3cnn(C[C@@H]4CC(=O)N(C)C4)c3)cc([C@H]3CC[C@H](O)CC3)n2n1 [Compound 476] | ≤ 100 |  |  | 100 to 1000
CCCCC[C@H](C)Nc1ncc2c(C(=O)Nc3ccc(F)cc3)cc(C3CCC(O)CC3)n2n1 (stereo partly drawn) [Compound 111, N-(4-fluorophenyl)-7-(4-hydroxycyclohexyl)-2-[[(1S)-1-methylhexyl]amino]pyrrolo[2,1-f][1,2,4]triazine-5-carboxamide] | 1000 to 10000 | + (“+” represents a ratio of >2.0 and <10) | > 10000 | 1000 to 10000
